From US6362369B1, “Phthalic acid diamide derivatives fluorine-containing aniline compounds as starting material, agricultural and horticultural insecticides, and a method for application of the insecticides” (Nihon Nohyaku Co., Ltd., priority 1997, dated 2002)

What was measured:
Format in all cases: in vivo
[1] = test system: rice leafroller (Cnaphalocrocis medinalis); test: Insecticidal effect on rice leafroller (Test Example 3); conditions: 500 ppm, 25° C., humidity 70%; for Insecticidal effect, Test Example 3: rice lamina immersed; for Insecticidal effect, Test Example 3 / Insecticidal effect on rice leafroller (Test Example 3), judged grade: four days after inoculation; for Insecticidal effect (Test Example 3), judged from mortality / Insecticidal effect on rice leafroller (Test Example 3), judged grade: rice lamina dip; for Insecticidal effect (Test Example 3), judged from mortality: 4 days after inoculation; for Insecticidal effect on rice leafroller (Test Example 3), judged grade: third-instar larvae
Outline: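 Groups of 10 third-instar larvae, in triplicate, are placed on air-dried lamina resting on wet filter paper. Incubation runs four days at 25° C with 70% humidity before survivors and dead are tallied.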

[2] = test system: diamondback moth (Plutella xylostella); test: Insecticidal effect on diamondback moth (Test Example 1); conditions: for Insecticidal effect, Test Example 1 / Insecticidal effect (Test Example 1), judged from mortality: diamondback moth; for Insecticidal effect (Test Example 1), judged from mortality: judged by the criterion of Test Example 1; for Insecticidal effect on diamondback moth (Test Example 1), judged grade: mortality judged according to the criterion shown in Test Example 1
Outline: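 Eggs laid by adult moths on Chinese cabbage seedlings, which were immersed in test solution, air-dried and kept at 25 °C. Hatched insects counted 6 days after immersion and mortality calculated, with effect graded by criterion; triplicate groups of 10 insects.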

[3] = test system: common cutworm (Spodoptera Litura); test: Insecticidal effect on common cutworm (Test Example 2); conditions: 500 ppm, 25° C.; for Insecticidal effect, Test Example 2: cabbage leaf immersed; for Insecticidal effect, Test Example 2 / Insecticidal effect on common cutworm (Test Example 2), judged grade: eight days after inoculation; for Insecticidal effect (Test Example 2), judged from mortality / Insecticidal effect on common cutworm (Test Example 2), judged grade: cabbage leaf dip; for Insecticidal effect (Test Example 2), judged from mortality: 8 days after inoculation; for Insecticidal effect on common cutworm (Test Example 2), judged grade: second-instar larvae
Outline: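 Second-instar larvae placed in 9 cm Petri dishes with air-dried treated material, held at 25 °C. Dead and live insects counted 8 days after inoculation; mortality calculated and scored against a set criterion. Triplicate groups of 10 insects.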

[4] = third-instar larvae of rice leafroller
[5] = judged by the mortality criterion of Test Example 1
[6] = second-instar larvae of common cutworm
[7] = rice leafroller third-instar larvae
[8] = mortality judged by criterion of Test Example 1
[9] = common cutworm second-instar larvae

Row | SMILES | Insecticidal effect, Test Example 3 [1, 4] | Insecticidal effect, Test Example 1 [2, 5] | Insecticidal effect, Test Example 2 [3, 6] | Insecticidal effect, Test Example 3 [1, 7] | Insecticidal effect, Test Example 1 [2, 8] | Insecticidal effect, Test Example 2 [3, 9] | other results
1 | Cc1cc(C(F)(F)C(F)(F)C(F)(F)F)ccc1NC(=O)c1c(I)cccc1C(=O)NC(C)C [compound 438] | A (100) | A (100) | B (99-90) |  |  |  | 
2 | Cc1cc(Oc2ncccn2)ccc1NC(=O)c1cccc(I)c1C(=O)NC(C)C [compound 1618] |  |  |  |  |  |  | Insecticidal effect (Test Example 3), judged from mortality [1, 4]: A (100); Insecticidal effect (Test Example 1), judged from mortality [2]: A (100); Insecticidal effect (Test Example 2), judged from mortality [3, 6]: C (89-80)
3 | Cc1cc(C(F)(F)C(F)(F)F)ccc1NC(=O)c1cccc(F)c1C(=O)NC(C)(C)C [compound 1505] |  |  |  |  |  |  | Insecticidal effect (Test Example 3), judged from mortality [1, 4]: A (100); Insecticidal effect (Test Example 1), judged from mortality [2]: A (100); Insecticidal effect (Test Example 2), judged from mortality [3, 6]: A (100)
4 | CC(C)NC(=O)c1c(C(=O)Nc2ccc3c(c2)OC(F)(F)O3)cccc1[N+](=O)[O-] [compound 1100] |  |  |  | A (100) | A (100) | C (89-80) | 
5 | Cc1cc(OC(F)(F)C(F)F)ccc1NC(=O)c1c(Cl)cccc1C(=O)NC(C)C [Compound No. 239, 6-chloro-N^1-[4-(1,1,2,2-tetrafluoroethoxy)-2-methylphenyl]-N^2-isopropylphthalic acid diamide] | A (100) | A (100) | A (100) |  |  |  | 
6 | CCc1cc(OC(F)(F)F)ccc1NC(=O)c1cccc(Cl)c1C(=O)NC(C)C [compound 1209] |  |  |  | A (100) | A (100) | D (79-50) | 
7 | Cc1cc(C(F)(F)C(F)(F)F)ccc1NC(=O)c1c(I)cccc1C(=O)NC(C)(C)C [compound 943] |  |  |  | A (100) | A (100) | C (89-80) | 
8 | Cc1cc(OC(F)(F)C(F)(Br)C(F)(F)F)ccc1NC(=O)c1ccccc1C(=O)NC(C)C (stereo not drawn) [compound 66] | B (99-90) | A (100) | A (100) |  |  |  | 
9 | CC(C)NC(=O)c1ccccc1C(=O)Nc1ccc(OC(F)(F)C(F)OC(F)(F)C(F)(F)C(F)(F)F)cc1 (stereo not drawn) [compound 30] | A (100) | A (100) | A (100) |  |  |  | 
10 | CC(C)NC(=O)c1c(I)cccc1C(=O)Nc1ccc([S+]([O-])C(F)(F)Br)cc1 (stereo not drawn) [compound 1113] |  |  |  | A (100) | A (100) | A (100) | 
11 | Cc1cc(OC(F)(F)C(F)F)ccc1NC(=O)c1ccccc1C(=O)NC(C)C [compound 60] | A (100) | A (100) | A (100) |  |  |  | 
12 | Cc1cc(OC(F)(F)C(F)Cl)ccc1NC(=O)c1cccc(I)c1C(=O)NC(C)C (stereo not drawn) [compound 392] | A (100) | A (100) | A (100) |  |  |  | 
13 | Cc1cc(Oc2ccc(C(F)(F)F)cc2Cl)ccc1NC(=O)c1cccc(F)c1C(=O)NC(C)C [compound 521] |  |  |  |  |  |  | Insecticidal effect on rice leafroller (Test Example 3), judged grade [1]: A (100); Insecticidal effect on diamondback moth (Test Example 1), judged grade [2]: A (100); Insecticidal effect on common cutworm (Test Example 2), judged grade [3]: A (100)
14 | COc1ccc(NC(=O)c2cccc(Br)c2C(=O)NC(C)C)c(C)c1C [compound 285] | A (100) | A (100) | D (79-50) |  |  |  | 
15 | Cc1cc(C(F)(F)C(F)(F)C(F)(F)C(F)(F)F)ccc1NC(=O)c1cccc(Cl)c1C(=O)NC(C)C [compound 132] | A (100) | A (100) | A (100) |  |  |  | 
16 | Cc1cc(OC(F)(F)F)ccc1NC(=O)c1ccc(I)cc1C(=O)NC(C)C [compound 1246] |  |  |  | A (100) | A (100) | A (100) | 
17 | CCN(C(=O)c1c(I)cccc1C(=O)Nc1ccc(OC(F)(F)F)cc1)C(C)C [compound 1160] |  |  |  | A (100) | A (100) | A (100) | 
18 | Cc1cc(Oc2c(F)c(F)c(F)c(F)c2F)ccc1NC(=O)c1cccc(Cl)c1C(=O)NC(C)C [compound 157] | A (100) | A (100) | A (100) |  |  |  | 

Row | SMILES | Insecticidal effect, Test Example 3 [1, 4] | Insecticidal effect, Test Example 1 [2, 5] | Insecticidal effect, Test Example 2 [3, 6] | Insecticidal effect, Test Example 3 [1, 7] | Insecticidal effect, Test Example 1 [2, 8] | Insecticidal effect, Test Example 2 [3, 9] | other results
19 | CC(C)(C)NC(=O)c1c(I)cccc1C(=O)Nc1ccc2c(c1Cl)OC(F)(F)C(F)(F)O2 [compound 1644] |  |  |  |  |  |  | Insecticidal effect (Test Example 3), judged from mortality [1, 4]: A (100); Insecticidal effect (Test Example 1), judged from mortality [2]: A (100); Insecticidal effect (Test Example 2), judged from mortality [3, 6]: A (100)
20 | Cc1cc(OC(F)(F)C(F)C(F)(F)F)ccc1NC(=O)c1cccc(F)c1C(=O)NC(C)C (stereo not drawn) [compound 514] |  |  |  |  |  |  | Insecticidal effect on rice leafroller (Test Example 3), judged grade [1]: A (100); Insecticidal effect on diamondback moth (Test Example 1), judged grade [2]: A (100); Insecticidal effect on common cutworm (Test Example 2), judged grade [3]: A (100)
21 | CCCCCNC(=O)c1c(I)cccc1C(=O)Nc1ccc(C(F)(F)C(F)(F)F)cc1C [compound 947] |  |  |  | A (100) | A (100) | A (100) | 
22 | Cc1cc(C(F)(F)C(F)(F)C(F)(F)F)ccc1NC(=O)c1cccc(Cl)c1C(=O)NC(C)C [compound 130] | A (100) | A (100) | A (100) |  |  |  | 
23 | CC(C)(C)NC(=O)c1c(I)cccc1C(=O)Nc1ccc(C(F)(F)C(F)(F)F)cc1F [compound 1427] |  |  |  | A (100) | A (100) | A (100) | 
24 | CC(C)(C)NC(=O)c1c(I)cccc1C(=O)Nc1ccc2c(c1)OC(F)C(F)(F)O2 (stereo not drawn) [compound 1150] |  |  |  | A (100) | A (100) | A (100) | 
25 | CCc1cc(OC(F)(F)F)ccc1NC(=O)c1cccc(I)c1C(=O)N(CC)CC [compound 1212] |  |  |  | A (100) | A (100) | A (100) | 
26 | Cc1cc(OC(F)F)ccc1NC(=O)c1cccc(S(C)(=O)=O)c1C(=O)NC(C)C [compound 795] |  |  |  |  |  |  | Insecticidal effect on rice leafroller (Test Example 3), judged grade [1]: A (100); Insecticidal effect on diamondback moth (Test Example 1), judged grade [2]: A (100); Insecticidal effect on common cutworm (Test Example 2), judged grade [3]: B (99-90)
27 | CC(C)NC(=O)c1c(I)cccc1C(=O)Nc1ccc2c(c1)OC(F)(F)C(F)O2 (stereo not drawn) [compound 1164] |  |  |  | A (100) | A (100) | A (100) | 
28 | Cc1cc(OC(F)(F)C(F)F)c(Cl)cc1NC(=O)c1c(I)cccc1C(=O)NC(C)C [compound 454] |  |  |  |  |  |  | Insecticidal effect on rice leafroller (Test Example 3), judged grade [1]: A (100); Insecticidal effect on diamondback moth (Test Example 1), judged grade [2]: A (100); Insecticidal effect on common cutworm (Test Example 2), judged grade [3]: A (100)
29 | CC(C)NC(=O)c1c(C(=O)Nc2ccc(OC(F)(F)C(F)OC(F)(F)C(F)(F)C(F)(F)F)cc2)cccc1[N+](=O)[O-] (stereo not drawn) [compound 619] |  |  |  |  |  |  | Insecticidal effect on rice leafroller (Test Example 3), judged grade [1]: A (100); Insecticidal effect on diamondback moth (Test Example 1), judged grade [2]: A (100); Insecticidal effect on common cutworm (Test Example 2), judged grade [3]: A (100)
30 | CCC(C)NC(=O)c1c(I)cccc1C(=O)Nc1ccc(C(F)(F)C(F)(F)F)cc1C (stereo not drawn) [compound 1007] |  |  |  | A (100) | A (100) | A (100) | 
31 | COc1cccc(C(=O)Nc2ccc(OC(F)(F)F)cc2)c1C(=O)NC(C)C [compound 767] |  |  |  |  |  |  | Insecticidal effect on rice leafroller (Test Example 3), judged grade [1]: A (100); Insecticidal effect on diamondback moth (Test Example 1), judged grade [2]: A (100); Insecticidal effect on common cutworm (Test Example 2), judged grade [3]: C (89-80)
32 | CC(C)NC(=O)c1c(Cl)cccc1C(=O)Nc1ccc(C(F)(F)C(F)(F)F)cc1F [compound 1382] |  |  |  | A (100) | A (100) | A (100) | 
33 | Cc1ccc(NC(=O)c2cccc(I)c2C(=O)NC(C)C)c(C)c1Cl [compound 364] | D (79-50) | A (100) | A (100) |  |  |  | 
34 | Cc1cc(C(F)(F)C(F)(F)F)ccc1NC(=O)c1cccc(Cl)c1C(=O)NC(C)(C)C#Cc1ccc(F)cc1F [compound 1650] |  |  |  |  |  |  | Insecticidal effect (Test Example 3), judged from mortality [1, 4]: A (100); Insecticidal effect (Test Example 1), judged from mortality [2]: A (100); Insecticidal effect (Test Example 2), judged from mortality [3, 6]: A (100)
35 | CCCNC(=O)c1c(F)cccc1C(=O)Nc1ccc(C(F)(F)C(F)(F)F)cc1F [compound 1512] |  |  |  |  |  |  | Insecticidal effect (Test Example 3), judged from mortality [1, 4]: A (100); Insecticidal effect (Test Example 1), judged from mortality [2]: A (100); Insecticidal effect (Test Example 2), judged from mortality [3, 6]: A (100)
